Data on eleven compounds can be found in ChEMBL document CHEMBL1201862, “PubChem BioAssay data set” (2004).

Among the test systems are LOX IMVI; TK-10; A549; NCI-H23; NCI-H226; NCI-H460; OVCAR-5; SN12C; OVCAR-4; COLO 205; SK-OV-3; SF-268; DU-145; SNB-19; UO-31; KM12; SK-MEL-5; HCT-15; HCT-116; CAKI-1.
Holding throughout (assay): NCI-60 cell line screen, 48 h

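Growth conditions: 96-well plates. Treatment: test compound, 48 hours, 5 concentrations. Analysis: linear interpolation between bracketing concentrations; unreached endpoints set to highest concentration. Abbreviation: GI50, concentration required for 50% inhibition of growth.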 The source made the active and inactive calls. Cut-off read from the data, not from the text of the source: active = GI50 up to about 1.1 µM and inactive = higher. Some results are limits rather than exact numbers.

Take `Cc1cc2c(c(S(=O)(=O)c3ccc(Cl)cc3[N+](=O)[O-])c1)NCCC2`: the GI50 in the experiment on LOX IMVI is 5.57 µM (inactive); in the experiment with TK-10, > 100 µM (inactive); in the experiment with A549, 38.5 µM (inactive); in the experiment with NCI-H23 it was 45 µM (inactive); with NCI-H226, > 100 µM (inactive); in the experiment on NCI-H460, 74.1 µM (inactive). Besides, the GI50 in the experiment on OVCAR-5 is > 100 µM (inactive); in the experiment with SN12C it was > 100 µM (inactive); in the experiment on OVCAR-4, 15.3 µM (inactive); in the experiment on COLO 205, > 100 µM (inactive); in the experiment on SK-OV-3, > 100 µM (inactive); in the experiment with SF-268 it was 99.3 µM (inactive). The GI50 with DU-145 is 94.4 µM (inactive); in the experiment on SNB-19, > 100 µM (inactive); with UO-31 it was > 100 µM (inactive); with KM12, 35.1 µM (inactive); with SK-MEL-5, 25.9 µM (inactive); with HCT-15, 70.8 µM.
Consider `CC12CP(=O)(c3ccccc3)CC1c1ccccc1C2c1ccccc1` (centres undefined), for which the GI50 in the experiment with TK-10 is 62.2 µM (inactive); with A549 it was 16.4 µM (inactive); in the experiment on NCI-H23, 20.7 µM (inactive); in the experiment on NCI-H226, 19.7 µM (inactive); with NCI-H460 it was 14.5 µM (inactive); in the experiment with OVCAR-5 it was 30.9 µM (inactive). The GI50 is 17.9 µM (inactive) with SN12C; 14.3 µM (inactive) with HCT-116; 40.1 µM (inactive) with SK-OV-3; 26.1 µM (inactive) in the experiment with SF-268; 21 µM (inactive) with DU-145; 48 µM (inactive) with SNB-19. Moreover, the GI50 in the experiment on UO-31 was 16.7 µM (inactive); with KM12 it was 17.3 µM (inactive); with SK-MEL-5 it was 19.1 µM (inactive); in the experiment with HCT-15, 13.7 µM.
Take `C(=N\N=C1NCCCN1)/c1ccc2ccccc2c1`: the GI50 was 9.14 µM (inactive) in the experiment on LOX IMVI; 18.6 µM (inactive) in the experiment on TK-10; 9.23 µM (inactive) in the experiment on A549; 17.6 µM (inactive) in the experiment with NCI-H23; 12.4 µM (inactive) with NCI-H226; 4.98 µM (inactive) with NCI-H460. For the same compound, the GI50 was 8.69 µM (inactive) with OVCAR-5; 12.4 µM (inactive) in the experiment with SN12C; 19.3 µM (inactive) in the experiment on OVCAR-4; 5.93 µM (inactive) in the experiment with COLO 205; 10.4 µM (inactive) in the experiment with HCT-116; 11.2 µM (inactive) in the experiment with SK-OV-3. For the same compound, the GI50 in the experiment with SF-268 is 14.2 µM (inactive); in the experiment with DU-145 it was 11 µM (inactive); in the experiment on SNB-19, 14.7 µM (inactive); in the experiment on UO-31 it was 11.6 µM (inactive); in the experiment on KM12, 13.6 µM (inactive); in the experiment on SK-MEL-5 it was 3.47 µM (inactive). This compound gave a GI50 with HCT-15 of 13.7 µM.
With `C1=N\CCNCC/N=C\c2ccc(cc2)OCc2cccc(n2)COc2ccc/1cc2`, the GI50 with A549 was > 100 µM (inactive); in the experiment on NCI-H23, 66.7 µM (inactive); in the experiment on NCI-H226, > 100 µM (inactive); with NCI-H460 it was > 100 µM (inactive); with OVCAR-5 it was > 100 µM (inactive); in the experiment on CAKI-1, > 100 µM (inactive). The GI50 is > 100 µM (inactive) with SN12C; 97.3 µM (inactive) in the experiment with OVCAR-4; > 100 µM (inactive) in the experiment on COLO 205; > 100 µM (inactive) with HCT-116; 36.3 µM (inactive) in the experiment on SK-OV-3; 22.2 µM (inactive) with SF-268. Also, the GI50 in the experiment with DU-145 was > 100 µM (inactive); in the experiment with SNB-19 it was 49 µM (inactive); in the experiment with UO-31 it was > 100 µM (inactive); in the experiment on KM12, > 100 µM (inactive); in the experiment with SK-MEL-5 it was 65.8 µM (inactive); in the experiment with HCT-15, 97.1 µM.
Turning to `O=C(O)C1Cc2ccccc2OC1=O` (centres undefined), the GI50 in the experiment on TK-10 is > 100 µM (inactive); in the experiment with A549, > 100 µM (inactive); with NCI-H23, 8.69 µM (inactive); in the experiment with NCI-H226 it was > 100 µM (inactive); in the experiment with NCI-H460, > 100 µM (inactive); in the experiment with OVCAR-5, > 100 µM (inactive). Further, the GI50 with CAKI-1, with SN12C, with COLO 205, with HCT-116, with SK-OV-3 and with SF-268 was > 100 µM (inactive) each time. Moreover, the GI50 was > 100 µM (inactive) in the experiment with DU-145; > 100 µM (inactive) in the experiment with SNB-19; > 100 µM (inactive) with UO-31; > 100 µM (inactive) in the experiment with KM12; > 100 µM (inactive) in the experiment with SK-MEL-5; over 100 µM in the experiment with HCT-15.
Take `COc1ccc(N2C(=O)CC(C3CC(C(C)(C)C)CCC3=O)C2=O)cc1` (centres undefined): the GI50 in the experiment with TK-10, in the experiment with A549, in the experiment on NCI-H23, with NCI-H226, in the experiment on NCI-H460 and with CAKI-1 was > 100 µM (inactive) in each case. The GI50 with SN12C, with OVCAR-4, with COLO 205, with HCT-116, in the experiment on SK-OV-3 and with SF-268 was > 100 µM (inactive) in each case. The GI50 in the experiment with DU-145 was > 100 µM (inactive); in the experiment with SNB-19, > 100 µM (inactive); in the experiment on UO-31 it was > 100 µM (inactive); in the experiment with KM12 it was > 100 µM (inactive); with SK-MEL-5, > 100 µM (inactive); in the experiment with HCT-15 it was over 100 µM.
`Cc1ccc(-c2nc3n(c2/C=N\N=C(N)N)CCS3)cc1`: the GI50 was 16.7 µM (inactive) with LOX IMVI; 19 µM (inactive) in the experiment on TK-10; 15.9 µM (inactive) with A549; 15.8 µM (inactive) in the experiment with NCI-H23; 18 µM (inactive) with NCI-H460; 16.3 µM (inactive) in the experiment on OVCAR-5. Also, the GI50 in the experiment with CAKI-1 is 17.9 µM (inactive); with SN12C it was 16.1 µM (inactive); with OVCAR-4 it was 16.6 µM (inactive); in the experiment on COLO 205 it was 14.5 µM (inactive); in the experiment on HCT-116, 14.8 µM (inactive); with SK-OV-3, 15.3 µM (inactive). In addition, the GI50 with SF-268 is 14.9 µM (inactive); in the experiment with DU-145 it was 13.8 µM (inactive); with SNB-19 it was 15.1 µM (inactive); in the experiment on UO-31, 16.7 µM (inactive); in the experiment on KM12 it was 15 µM (inactive); with SK-MEL-5, 14.2 µM (inactive). Besides, the GI50 with HCT-15 is 17.5 µM.
As for `Oc1ccc(CCNCc2cc3c(cc2Br)OCO3)cc1`, the GI50 in the experiment with LOX IMVI is 88.9 µM (inactive); in the experiment on TK-10, 75.9 µM (inactive); in the experiment on A549, > 100 µM (inactive); in the experiment with NCI-H23 it was > 100 µM (inactive); in the experiment with NCI-H226, 32.5 µM (inactive); with NCI-H460, 57.8 µM (inactive). For the same compound, the GI50 with OVCAR-5 was > 100 µM (inactive); in the experiment with SN12C it was 66.8 µM (inactive); with COLO 205 it was 18.8 µM (inactive); in the experiment with HCT-116 it was 61.7 µM (inactive); in the experiment with SK-OV-3, 51.8 µM (inactive); in the experiment on SF-268, > 100 µM (inactive). Moreover, the GI50 was > 100 µM (inactive) in the experiment with DU-145; > 100 µM (inactive) with SNB-19; 55.7 µM (inactive) in the experiment with UO-31; 27.1 µM (inactive) with SK-MEL-5; over 100 µM with HCT-15.
With `COc1ccc(/C=C2/S/C(=N\c3ccccc3)N(NC(=O)Cc3ccccc3)C2=O)c(OC)c1`, the GI50 in the experiment on TK-10, in the experiment on A549, with NCI-H23, with NCI-H226, in the experiment on NCI-H460 and with OVCAR-5 was > 100 µM (inactive) throughout. The GI50 in the experiment on SN12C, in the experiment with OVCAR-4, with COLO 205, in the experiment with HCT-116, with SK-OV-3 and in the experiment on SF-268 was > 100 µM (inactive) in each case. Besides, the GI50 in the experiment on DU-145 was > 100 µM (inactive); with SNB-19 it was > 100 µM (inactive); with UO-31, 98.9 µM (inactive); in the experiment with KM12 it was > 100 µM (inactive); in the experiment with SK-MEL-5, 69.5 µM (inactive); in the experiment on HCT-15, over 100 µM.
Take `O=S(=O)(c1ccccc1)[C@H]1[C@@H]2O[C@@H]2C[C@@H]1O`: the GI50 in the experiment with TK-10, with A549, in the experiment on NCI-H23, in the experiment on NCI-H226, in the experiment with NCI-H460 and with OVCAR-5 was > 100 µM (inactive) each time. For the same compound, the GI50 with CAKI-1, with SN12C, with OVCAR-4, in the experiment on COLO 205, with HCT-116 and in the experiment on SK-OV-3 was > 100 µM (inactive) in each case. Further, the GI50 with SF-268, in the experiment on DU-145, in the experiment on SNB-19, in the experiment with UO-31, in the experiment with KM12 and in the experiment with SK-MEL-5 was > 100 µM (inactive) each time. The compound further displayed a GI50 with HCT-15 of over 100 µM.
For the compound `CC(=O)OCC1OC(n2c(N)c(C#N)c(-c3cccc(Cl)c3)c(C#N)c2=S)C(OC(C)=O)C(OC(C)=O)C1OC(C)=O` (centres undefined), the GI50 in the experiment on LOX IMVI is 14.7 µM (inactive); with TK-10 it was 19.9 µM (inactive); with A549, 24.3 µM (inactive); in the experiment with NCI-H23, 24.2 µM (inactive); in the experiment on NCI-H460, 24.8 µM (inactive); in the experiment on OVCAR-5, 44.8 µM (inactive). Also, the GI50 is 26.8 µM (inactive) in the experiment on CAKI-1; 37.6 µM (inactive) with SN12C; 16.7 µM (inactive) in the experiment on OVCAR-4; 16.2 µM (inactive) in the experiment on COLO 205; 22.4 µM (inactive) in the experiment on HCT-116; 20.7 µM (inactive) in the experiment with SK-OV-3. In addition, the GI50 in the experiment with SF-268 is 13.3 µM (inactive); in the experiment on DU-145, 18.2 µM (inactive); in the experiment on SNB-19 it was 31.5 µM (inactive); with UO-31, 40.2 µM (inactive); with KM12, 15.5 µM (inactive); with SK-MEL-5 it was 14.3 µM (inactive). The compound further showed a GI50 with HCT-15 of 22.5 µM.
